Measured values published in US8143217B2, “Use of DPP-IV inhibitor to reduce hypoglycemic events” (Novartis AG, priority 2005, dated 2012).

System: patients with type 2 diabetes treated with insulin
Assay: Clinical study: 24 weeks LAF237 50 mg bid vs placebo as add-on to insulin, hypoglycemic episodes
Type: in vivo, human
Conditions: for Number of severe hypoglycemic episodes (Panel C): severe = requiring assistance of another party; for Number of severe hypoglycemic events compared with placebo group: P=0.032, chi-square test of two Poisson rates
Method: A multicenter, double-blind, randomized, parallel-group study to compare the effect of 24 weeks treatment with LAF237 50 mg bid to placebo as add-on therapy in patients with type 2 diabetes treated with insulin.
In addition to treatment with insulin, patients are assigned to double-blind treatment of LAF237 50 mg bid or placebo in a ratio of 1:1.
This is a multicenter, randomized, double-blind, placebo-controlled study. Patients with type 2 diabetes (HbA1c 7.5-11%) who have been treated for at least 3 months with insulin is eligible for participation in the trial. Eligible patients are randomized equally to LAF237 50 mg bid or placebo in addition to continuing their insulin therapy. The insulin dose can be adjusted downward as clinically indicated but upward adjustments should not exceed 25% of the baseline insulin dose.
Each patient attends one screening visit (Week-4) where the inclusion/exclusion criteria is assessed. Eligible patients are then be randomized at Visit 2 (Baseline, Day 1) and complete 5 further visits over a period of 24 weeks of treatment with LAF237 or placebo added to insulin.
Patients were instructed to perform self-monitored blood glucose measurements (SMBG) any time hypoglycemia was suspected and prior to breakfast at least 3 times per week. […] Severe hypoglycemia was defined as any episode requiring the assistance of another party (with low plasma glucose value<3.1 mmol/L unless the severity of the event precluded glucose determination).

[1] = 24-week treatment, vildagliptin 50 mg bid added to insulin (n = 144)

- Total number of hypoglycemic episodes reported (Panel B) [1]: 113 episodes
- Number of patients reporting any hypoglycemic episode (Panel A) (24-week treatment, vildagliptin 50 mg bid added to insulin (n = 144), hypoglycemia = symptoms confirmed by SMBG<3.1 mmol/L): 33 patients
- Number of severe hypoglycemic episodes (Panel C) [1]: none
- Number of severe hypoglycemic episodes (Panel C) (24-week treatment, vildagliptin 50 mg bid added to insulin (n = 144), listed as Vildagliptin + Insulin): 0 episodes
- Effect against insulin-induced hypoglycemia (added to insulin in type 2 diabetes patients): protective effect
- Number of hypoglycemic events compared with placebo group (vildagliptin 50 mg bid vs placebo, both added to insulin, 24 weeks, P<0.001, chi-square test of two Poisson rates): statistically significantly lower
- Number of severe hypoglycemic events compared with placebo group (vildagliptin 50 mg bid vs placebo, both added to insulin, 24 weeks): statistically significantly lower
- Number of severe hypoglycemic events compared with placebo group (vildagliptin 50 mg bid vs placebo, both added to insulin, 24 weeks, listed as LAF237): fewer severe hypoglycaemic episodes
Structure (SMILES): N#C[C@@H]1CCCN1C(=O)CNC12CC3CC(CC(O)(C3)C1)C2 [vildagliptin, (S)-1-[(3-hydroxy-1-adamantyl)amino]acetyl-2-cyano-pyrrolidine]
- Number of severe hypoglycemic episodes (Panel C) (24-week treatment, vildagliptin 50 mg bid added to insulin (n = 144), listed as LAF237): did not show any severe hypoglycaemic episodes
